According to patent US6239171A, “Tocotrienols and tocotrienol-like compounds and methods for their use” (Lipogenics, Inc., priority 1998, dated 2001):

Tests used:
[1] = test system: hypercholesterolemic swine; assay: Serum cholesterol, apolipoproteins, triglycerides, glucose, insulin and glucagon in hypercholesterolemic swine; format: in vivo; details: for Apo A1, percentage of control / Apo A1 concentration in serum / Apo B concentration in serum / Apo B, percentage of control / Triglycerides concentration in serum / Triglycerides, percentage of control: 6 weeks
Experimental: All assays conducted on chicken or swine serum were done following the protocols described in A. A. Qureshi et al., "Lowering Of Serum Cholesterol In Hypercholesterolemic Humans By Tocotrienols" (Palmvitee), Am. […] Plasma insulin, glucagon and TNF levels were measured using radioinnumoassay kits from Ventrex Laboratories, Inc. (Portland, Me.), ICN Biomedicals, Inc. (Costa Mesa, Calif.) and Genzyme Corp. (Cambridge, Mass.), respectively.
We next measured the effects of various tocotrienols from rice bran on HMG-CoA reductase and cholesterol 7α-hydroxylase in hypercholesterolemic swine. Since pigs are very similar to humans in their cholesterol metabolism, they provide a useful model from which to study hypercholesterolemia and related diseases. […] As a result, the pigs develop complicated atherosclerotic plaques that closely resemble advanced atherosclerotic lesions found in humans.
Each group of three 5-month old swine was administered either a control diet or a control diet supplemented with 50 ppm of TRF or 50 ppm of an individual tocotrienol. […] After a 12 hour fast, serum and plasma samples were taken a 0 hrs, 21 days and 42 days from the start of the feeding period. After taking serum and plasma samples from the pigs at the end of the 42 day period, all of the swine were fasted for a total of 40 hours, followed by a 48 hour refeeding period. One swine from each group was sacrificed at that time and the liver, intestine, lung, heart, loin muscle, adipose tissue and ham muscle were removed.
The experimental conditions were the same, except that the two remaining swine in each group were transferred to the unsupplemented control diet following the 42 day feeding period. After an additional 70 days, serum and plasma samples were collected from these swine after a 12 hour fast for testing.

chickens = assay: Plasma thromboxane B2 and platelet factor 4 in chickens fed supplemented diets; format: in vivo, chicken; details: control diet + 50 ppm, 4 weeks
Text: We next measured the effects of TRF and its components on serum levels of apolipoprotein (a)1, apolipoprotein B, triglycerides and glucose and the plasma levels of thromboxane B2 and platelet factor 4.

HMG-CoA reductase = biological target: T1, HMG-CoA reductase (Homo sapiens, UniProt P04035); assay: Hepatic HMG-CoA reductase activity in chickens fed supplemented diets; format: in vivo, chicken; details: 4 weeks; for HMG-CoA Reductase, percentage of control: control diet + 50 ppm
T1 construct: hepatocytes isolated from livers of 8-week old female chickens; endogenous in cells; host or cells: primary chicken hepatocytes
T1 sequence (P04035 1-888): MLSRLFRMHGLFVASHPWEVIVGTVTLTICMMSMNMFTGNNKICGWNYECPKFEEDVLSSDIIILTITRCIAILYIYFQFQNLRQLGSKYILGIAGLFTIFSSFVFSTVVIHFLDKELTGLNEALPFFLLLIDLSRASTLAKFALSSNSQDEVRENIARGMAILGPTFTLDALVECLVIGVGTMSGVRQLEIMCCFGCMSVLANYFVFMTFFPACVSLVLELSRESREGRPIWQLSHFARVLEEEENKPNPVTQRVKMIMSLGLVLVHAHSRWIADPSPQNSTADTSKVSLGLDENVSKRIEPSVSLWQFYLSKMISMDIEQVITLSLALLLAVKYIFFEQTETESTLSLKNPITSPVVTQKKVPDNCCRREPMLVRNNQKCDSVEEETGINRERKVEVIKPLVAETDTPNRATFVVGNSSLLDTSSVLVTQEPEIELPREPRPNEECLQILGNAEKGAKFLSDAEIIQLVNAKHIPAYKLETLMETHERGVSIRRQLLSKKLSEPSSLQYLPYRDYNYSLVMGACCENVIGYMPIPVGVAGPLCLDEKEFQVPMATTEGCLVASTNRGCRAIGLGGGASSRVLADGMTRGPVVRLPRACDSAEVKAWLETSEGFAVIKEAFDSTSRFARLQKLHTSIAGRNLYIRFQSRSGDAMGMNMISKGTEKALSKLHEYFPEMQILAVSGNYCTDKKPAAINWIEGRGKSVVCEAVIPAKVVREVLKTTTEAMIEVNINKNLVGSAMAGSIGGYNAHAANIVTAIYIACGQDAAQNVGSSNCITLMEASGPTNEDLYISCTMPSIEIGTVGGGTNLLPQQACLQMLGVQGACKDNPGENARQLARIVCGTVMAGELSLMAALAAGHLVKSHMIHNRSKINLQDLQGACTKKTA
Experimental: This example measured the effects of the TRF and its components on the hepatic enzymatic activity of HMG-CoA reductase and cholesterol 7α-hydroxylase. […] The amount of feed consumed ranged from 11.19-11.60 g per chicken and the feeding period was 4 weeks. The birds were fasted for a period of 36 hours and refed for 48 hours prior to sacrifice (at 0800 hours).

[2] = 70 days on control diet after 42 days at 50 ppm

## CC(C)=CCC/C(C)=C/CC/C(C)=C/CCC1CCc2cc(O)ccc2O1 (stereo not shown) [P25, 3,4-dihydro-2-(4,8,12-trimethyltrideca-3'(E),7'(E),11'-trienyl)-2H-1-benzopyran-6-ol]
[1]; [2]
  HDL-CHOLESTEROL CONCENTRATION IN SERUM: 32.65 mg/100 ml
  HDL-CHOLESTEROL, Percentage of Control Activity: 114.29%
  HDL-CHOLESTEROL, percentage of baseline value: 149.36%
  HDL:LDL CHOLESTEROL, Percentage of Control Activity: 82.06%
  LDL-CHOLESTEROL CONCENTRATION IN SERUM: 233.75 mg/100 ml
  LDL-CHOLESTEROL, Percentage of Control Activity: 90.17%
  LDL-CHOLESTEROL, percentage of baseline value: 128.17%
  TOTAL CHOLESTEROL CONCENTRATION IN SERUM: 268.90 mg/100 ml
  TOTAL CHOLESTEROL, Percentage of Control Activity: 75.60%
  TOTAL CHOLESTEROL, percentage of baseline value: 124.45%
[1]; control diet + 50 ppm
  Apo A1, percentage of control: 104.05%
  Apo A1 concentration in serum: 26.73 ± 1.22 mg/100 ml
  Apo B concentration in serum: 106.63 ± 1.72 mg/100 ml
  Apo B, percentage of control: 72.16%
  Triglycerides concentration in serum: 62.00 ± 1.19 mg/100 ml
  Triglycerides, percentage of control: 80.98%
[1]; control diet + 50 ppm, 21 days
  HDL-CHOLESTEROL CONCENTRATION IN SERUM: 25.68 mg/100 ml
  HDL-CHOLESTEROL, percentage of baseline value: 117.47%
  HDL:LDL CHOLESTEROL, percentage of baseline value: 89.20%
  LDL-CHOLESTEROL CONCENTRATION IN SERUM: 191.05 mg/100 ml
  LDL-CHOLESTEROL, percentage of baseline value: 104.76%
  TOTAL CHOLESTEROL CONCENTRATION IN SERUM: 229.90 mg/100 ml
  TOTAL CHOLESTEROL, percentage of baseline value: 106.33%
[1]; control diet + 50 ppm, 42 days
  Glucagon: 274.41 pg/mL
  Glucagon, percentage of control: 83.05%
  Glucose: 71.89 mg/100 ml
  Glucose, percentage of control: 74.89%
  HDL-CHOLESTEROL CONCENTRATION IN SERUM: 31.81 mg/100 ml
  HDL-CHOLESTEROL, Percentage of Control Activity: 123.75%
  HDL-CHOLESTEROL, percentage of baseline value: 145.52%
  HDL:LDL CHOLESTEROL, Percentage of Control Activity: 55.59%
  HDL:LDL CHOLESTEROL, percentage of baseline value: 74.58%
  Insulin: 20.9 µU/mL
  Insulin, percentage of control: 101.90%
  LDL-CHOLESTEROL CONCENTRATION IN SERUM: 198.01 mg/100 ml
  LDL-CHOLESTEROL, Percentage of Control Activity: 65.51%
  LDL-CHOLESTEROL, percentage of baseline value: 107.48%
  TOTAL CHOLESTEROL CONCENTRATION IN SERUM: 237.64 mg/100 ml
  TOTAL CHOLESTEROL, Percentage of Control Activity: 68.60%
  TOTAL CHOLESTEROL, percentage of baseline value: 107.60%
chickens
  Platelet Factor 4: 7.27 ng/mL
  Platelet Factor 4, percentage of control: 55.54%
  Thromboxane B2: 16.42 pg/mL
  Thromboxane B2, percentage of control: 63.54%
HMG-CoA reductase; 50 ppm in diet
  reduction of enzymatic activity of HMG-CoA reductase: about 28%
HMG-CoA reductase
  HMG-CoA Reductase, percentage of control: 71.33%

## CC(C)=CCC/C(C)=C/CC/C(C)=C/CCC1(C)CCc2cc(O)c(C)c(C)c2O1 (stereo not shown) [γ-T3, γ-tocotrienol, reference compound]
[1]; [2]
  HDL-CHOLESTEROL CONCENTRATION IN SERUM: 30.47 mg/100 ml
  HDL-CHOLESTEROL, Percentage of Control Activity: 106.66%
  HDL-CHOLESTEROL, percentage of baseline value: 139.39%
  HDL:LDL CHOLESTEROL, Percentage of Control Activity: 84.52%
  LDL-CHOLESTEROL CONCENTRATION IN SERUM: 224.66 mg/100 ml
  LDL-CHOLESTEROL, Percentage of Control Activity: 88.61%
  LDL-CHOLESTEROL, percentage of baseline value: 125.95%
  TOTAL CHOLESTEROL CONCENTRATION IN SERUM: 271.70 mg/100 ml
  TOTAL CHOLESTEROL, Percentage of Control Activity: 78.80%
  TOTAL CHOLESTEROL, percentage of baseline value: 129.66%
[1]; control diet + 50 ppm
  Apo A1, percentage of control: 102.06%
  Apo A1 concentration in serum: 26.22 ± 1.11 mg/100 ml
  Apo B concentration in serum: 114.29 ± 1.79 mg/100 ml
  Apo B, percentage of control: 77.34%
  Triglycerides concentration in serum: 61.78 mg/100 ml
  Triglycerides, percentage of control: 80.69%
[1]; control diet + 50 ppm, 21 days
  HDL-CHOLESTEROL CONCENTRATION IN SERUM: 25.27 mg/100 ml
  HDL-CHOLESTEROL, percentage of baseline value: 115.59%
  HDL:LDL CHOLESTEROL, percentage of baseline value: 89.83%
  LDL-CHOLESTEROL CONCENTRATION IN SERUM: 185.12 mg/100 ml
  LDL-CHOLESTEROL, percentage of baseline value: 103.78%
  TOTAL CHOLESTEROL CONCENTRATION IN SERUM: 225.20 mg/100 ml
  TOTAL CHOLESTEROL, percentage of baseline value: 107.39%
[1]; control diet + 50 ppm, 42 days
  Glucagon: 285.41 pg/mL
  Glucagon, percentage of control: 86.38%
  Glucose: 74.40 mg/100 ml
  Glucose, percentage of control: 77.51%
  HDL-CHOLESTEROL CONCENTRATION IN SERUM: 28.55 mg/100 ml
  HDL-CHOLESTEROL, Percentage of Control Activity: 111.06%
  HDL-CHOLESTEROL, percentage of baseline value: 130.60%
  HDL:LDL CHOLESTEROL, Percentage of Control Activity: 60.58%
  HDL:LDL CHOLESTEROL, percentage of baseline value: 82.84%
  Insulin: 21.2 µU/mL
  Insulin, percentage of control: 103.46%
  LDL-CHOLESTEROL CONCENTRATION IN SERUM: 193.80 mg/100 ml
  LDL-CHOLESTEROL, Percentage of Control Activity: 66.22%
  LDL-CHOLESTEROL, percentage of baseline value: 108.65%
  TOTAL CHOLESTEROL CONCENTRATION IN SERUM: 233.93 mg/100 ml
  TOTAL CHOLESTEROL, Percentage of Control Activity: 71.00%
  TOTAL CHOLESTEROL, percentage of baseline value: 111.76%
chickens
  Platelet Factor 4: 8.36 ng/mL
  Platelet Factor 4, percentage of control: 63.87%
  Thromboxane B2: 19.22 pg/mL
  Thromboxane B2, percentage of control: 74.38%
HMG-CoA reductase
  HMG-CoA Reductase, percentage of control: 78.32%
